From ChEMBL document CHEMBL1154228, “Photoregulation of thrombin aptamer activity using Bhc caging strategy” (Bioorg Med Chem Lett, 2009)
pKd: −log10 of the molar value.

How the values were obtained:
Prothrombin [1] = target: T1, Prothrombin (Homo sapiens, UniProt P00734); assay: Binding affinity to thrombin by surface plasmon resonance assay
Prothrombin [2] = target: T1, Prothrombin; assay: Binding affinity to thrombin in presence of 100 mJ/cm'2 UV light by surface plasmon resonance assay

- pKd (Prothrombin [1]): 6.49
- pKd (Prothrombin [2]): 6.41
SMILES: Cc1cn([C@H]2C[C@H](OP(=O)(O)OC[C@H]3O[C@@H](n4cnc5c(=O)[nH]c(N)nc54)[C@H](O)[C@@H]3OP(=O)(O)OC[C@H]3O[C@@H](n4cnc5c(=O)[nH]c(N)nc54)[C@H](O)[C@@H]3OP(=O)(O)OC[C@H]3O[C@@H](n4cc(C)c(=O)[nH]c4=O)C[C@@H]3OP(=O)(O)OC[C@H]3O[C@@H](n4cc(C)c(=O)[nH]c4=O)C[C@@H]3OP(=O)(O)OC[C@H]3O[C@@H](n4cnc5c(=O)[nH]c(N)nc54)[C@H](O)[C@@H]3OP(=O)(O)OC[C@H]3O[C@@H](n4cnc5c(=O)[nH]c(N)nc54)[C@H](O)[C@@H]3O)[C@@H](COP(=O)(O)O[C@H]3[C@@H](O)[C@H](n4cnc5c(=O)[nH]c(N)nc54)O[C@@H]3COP(=O)(O)O[C@H]3C[C@H](n4cc(C)c(=O)[nH]c4=O)O[C@@H]3COP(=O)(O)O[C@H]3[C@@H](O)[C@H](n4cnc5c(=O)[nH]c(N)nc54)O[C@@H]3COP(=O)(O)O[C@H]3[C@@H](O)[C@H](n4cnc5c(=O)[nH]c(N)nc54)O[C@@H]3COP(=O)(O)O[C@H]3C[C@H](n4cc(C)c(=O)[nH]c4=O)O[C@@H]3COP(=O)(O)O[C@H]3C[C@H](n4cc(C)c(=O)[nH]c4=O)O[C@@H]3COP(=O)(O)O[C@H]3[C@@H](O)[C@H](n4cnc5c(=O)[nH]c(N)nc54)O[C@@H]3COP(=O)(O)O[C@H]3[C@@H](O)[C@H](n4cnc5c(=O)[nH]c(N)nc54)O[C@@H]3CO)O2)c(=O)[nH]c1=O [THROMBIN APTAMER]
